Two substances from patent US8618051B2, “Vesiculins” (Auckland Uniservices Limited, priority 2005, dated 2013) can be followed below.

pEC50: −log10 of the molar value.

For this assay, the system named is rat soleus muscle strips. As to the kind of experiment: rat soleus muscle assay: D-[14C(U)]-glucose incorporation into muscle glycogen. Particulars: isolated soleus muscle strips of fasted male Wistar rats; peptide 0.71 nM to 237 nM; 120 minutes at 30° C.; read-out: EC50, stimulating the uptake and incorporation of radioactive glucose into muscle glycogen. As for the experimental part: The soleus muscle was dissected from anaesthetized fasted male Wistar rats (200 g±20 g). Each muscle was then teased longitudinally into 3 equal strips with a final radius of approximately 1.5 mm. An average of six muscle strips were transferred into flasks, containing 10 ml of carbogen-saturated nDMEM and peptide (vesiculin, insulin-II, or commercial human IGF-II (GroPep)) at concentrations ranging from 0.71 nM to 237 nM, before the addition of 10 μl of (0.5 μCi) D-[^14C(U)]-Glucose. Flasks were then incubated in a shaking water bath for 120 minutes at 30° C. under a stream of carbogen.
After incubation, the muscle strips were removed and blotted dry before being frozen instantly in liquid nitrogen and freeze-dried for 24 hours. The dried weight of muscle strip was recorded before the muscle strips were solubilised in 250 μl of 60% KOH (70° C. water bath for 45 minutes). 750 μl of ice-cold ethanol was then added and the tubes were left overnight at −20° C. to facilitate glycogen precipitation. Tubes were then centrifuged at 9000 g for 15 minutes at 0° C., the supernatant aspirated and the glycogen pellet resuspended in 750 μl of ice-cold ethanol. […] The tubes were mixed thoroughly, and then counted using a Beckman LS 3801 β-counter. The amount of D-[^14C(U)]-Glucose incorporation into muscle glycogen was calculated by dividing the cpm values by the dry muscle weight. […]

Take “human IGF-II: commercial human IGF-II (GroPep), used as a further positive control”: the pEC50 was 7.32.
Turning to “mouse insulin-II: insulin-II co-purified from βTC6-F7 granules as a preparative control”, the pEC50 was 7.57.
